Columns and labels:
Aspergillus nidulans [1] = experiment: High-throughput screen for antisporulant activity, direct application with a replicator; type: cell-based; conditions: direct application to the medium using a replicator; 2 days at 37° C.
Excerpt: For high-throughput screens, 245mm square bioassay dishes were poured and the medium containing the spore inoculum was allowed to solidify prior to application of test samples. Test samples, representing a broad spectrum of diverse chemical structures, were applied to the surface of the agar medium either by hand, using a replicator, or by robotic application. Each screen included a positive control treatment (e.g., 5 ∝g of one of the active benzophenones described elsewhere herein) that provided a positive response. Plates were incubated for 2 days at 37° C. Positives were initially identified by the presence of a discolored zone around the test sample. The positives were confirmed by retest followed by observation under a low power microscope (×20 magnification).
7000 compounds with diverse structures have been tested using the such a highthroughput screen. The compounds were tested by direct application to the medium using a replicator.

Aspergillus nidulans [2] = experiment: Sporulation assay, paper disc diffusion on PDA seeded with spores; type: cell-based, Aspergillus nidulans strain 003 (ATCC 36321)
[3] = system: Wheat Powdery Mildew (Blumeria [Erysiphe] graminis f.sp. tritici); conditions: in vivo; also: key: '+++' =high control; '++' =moderate control; '+' =low control; '0'=no control
[4] = system: Leptosphaeria (Septoria) nodorum; experiment: Protectant foliar spray test against wheat L. nodorum blotch; type: in vivo; conditions: wheat, foliar spray before inoculation; vs untreated inoculated controls; also: key: '+++' =high control; '++' =moderate control; '+' =low control; '0'=no control
[5] = system: Apple Scab (Venturia inaequalis); experiment: Protectant foliar spray test against apple scab; type: in vivo; conditions: apple seedlings, foliar spray before inoculation; vs untreated inoculated controls; also: key: '+++' =high control; '++' =moderate control; '+' =low control; '0'=no control
[6] = system: Rice Blast (Magnaporthe grisea); type: in vivo; conditions: foliar spray before inoculation, vs untreated inoculated controls

Row | Structure (SMILES) | anti-sporulation activity (Aspergillus nidulans [1]) | Active (Aspergillus nidulans [2]) | Inactive (Aspergillus nidulans [2]) | Moderately active (Aspergillus nidulans [2]) | Level of Plant Disease Control, Wheat Powdery Mildew [3] | Level of Plant Disease Control, Wheat L. nodorum [4] | Level of Plant Disease Control, Apple Scab [5] | Level of Plant Disease Control, Rice Blast [6]
1 | CC(C)(C)CC(C)(C)c1ccc(C(=O)O)cc1 [A, 4-(1,1,3,3-tetramethylbutyl)benzoic acid] | tested positive |  |  |  |  |  |  | 
2 | CC1=C(C(=O)Nc2ccccc2)SCCO1 [Carboxin] |  | No | Yes | No |  |  |  | 
3 | C[C@@H]([C@H](N)C(=O)N[C@H](C(=O)O)[C@H]1O[C@@H](n2ccc(=O)[nH]c2=O)[C@H](O)[C@@H]1O)[C@H](O)c1ccc(O)cn1 [Nikkomycin] |  | No | Yes | No |  |  |  | 
4 | COc1cc(C)c(C(=O)c2c(OC)ccc(C(F)(F)F)c2C)c(OC)c1OC [T, [6-methoxy-2-methyl-3-(trifluoromethyl)phenyl](2,3,4-trimethoxy-6-methylphenyl)methanone] |  |  |  |  | +++ | 0 | 0 | 0
5 | COc1cc(C)c(C(=O)c2c(OC)ccc(Cl)c2C)c(OC)c1OC [R, (3-chloro-6-methoxy-2-methylphenyl)(2,3,4-trimethoxy-6-methylphenyl)methanone] |  |  |  |  | +++ | 0 | 0 | ++

— patent publication US20020155518A1, “Method of detecting compounds that control fungal diseases via effects on sporulation” (priority 2000, published 2002)
